{
  "source": "patent US9695155B2",
  "about": "“Herbicidal substituted pyrimidinyloxy benzene compounds” (E. I. DU PONT DE NEMOURS AND COMPANY, priority 2013, dated 2017)",
  "key": {"galium": {"test_system": "galium", "assay": "Test C postemergence", "format": "in vivo, Galium aparine", "settings": "Galium, post-emergence", "outline": "(§1)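 Visual injury score versus untreated controls, 0 = no effect, 100 = complete control, taken 13 to 15 days after treatment in the greenhouse. Pre-emergence pots held loam/sand; post-emergence plants grew in sphagnum peat/vermiculite mix and were sprayed at the 1- to 4-leaf stage.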"}, "large (Lg) crabgrass": {"test_system": "large (Lg) crabgrass", "assay": "Test A postemergence", "format": "in vivo, Digitaria sanguinalis", "settings": "Digitaria sanguinalis, post-emergence, 240 h", "outline": "(§2)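 Scoring: eye-based comparison with untreated controls, 0 for no effect through 100 for complete control, at about day 10. Treatments: directed soil spray preemergence; foliar spray postemergence on 2–10 cm plants at the one- to two-leaf stage. Medium: loam soil with sand.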"}, "oilseed rape": {"test_system": "oilseed rape", "assay": "Test C postemergence", "format": "in vivo, Brassica napus", "settings": "Brassica napus, post-emergence", "outline": "as §1"}, "giant foxtail [1]": {"test_system": "giant foxtail", "assay": "Test A postemergence", "format": "in vivo, Setaria faberii", "settings": "Setaria faberi, post-emergence, 240 h, 0 to 100 scale where 0 is no effect and 100 is complete control, read-out: Plant response rating, Foxtail, Giant", "outline": "as §2"}, "pigweed": {"test_system": "pigweed", "assay": "Test A postemergence", "format": "in vivo, Amaranthus retroflexus", "settings": "Amaranthus retroflexus, post-emergence, 0 to 100 scale where 0 is no effect and 100 is complete control, read-out: Plant response rating, Pigweed", "outline": "as §2"}, "giant foxtail [2]": {"test_system": "giant foxtail", "assay": "Test A preemergence", "format": "in vivo, Setaria faberii", "settings": "Setaria faberi, pre-emergence, 240 h", "outline": "as §2"}, "waterhemp": {"test_system": "waterhemp", "assay": "Test C postemergence", "format": "in vivo, Amaranthus rudis", "settings": "Amaranthus tuberculatus, post-emergence", "outline": "as §1"}, "wheat": {"test_system": "wheat", "assay": "Test A preemergence", "format": "in vivo, Triticum aestivum", "outline": "as §2"}, "lambsquarters": {"test_system": "lambsquarters", "assay": "Test C postemergence", "format": "in vivo, Chenopodium album", "settings": "Chenopodium album, post-emergence", "outline": "as §1"}, "sedge, umbrella": {"test_system": "sedge, umbrella", "assay": "Test B flooded paddy test", "format": "in vivo, Cyperus difformis", "settings": "Cyperus difformis, Flood, 250 g ai/ha; 0 to 100 scale where 0 is no effect and 100 is complete control; read-out: Plant response rating, Sedge, Umbrella", "outline": "(§3)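 2-leaf stage plants; pots flooded to 3 cm, compound added to paddy water, depth maintained. Greenhouse 13–15 d. Visual rating vs untreated controls, 0 (no effect) to 100 (complete control); dash = no result.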"}, "barnyardgrass": {"test_system": "barnyardgrass", "assay": "Test B flooded paddy test", "format": "in vivo, Echinochloa crus-galli", "settings": "Echinochloa crus-galli; Flood, 250 g ai/ha; 0 to 100 scale where 0 is no effect and 100 is complete control; read-out: Plant response rating, Barnyardgrass", "outline": "as §3"}, "rice": {"test_system": "rice", "assay": "Test B flooded paddy test", "format": "in vivo, Oryza sativa", "settings": "Oryza sativa; Flood, 250 g ai/ha; 0 to 100 scale where 0 is no effect and 100 is complete control; read-out: Plant response rating, Rice", "outline": "as §3"}, "soybean": {"test_system": "soybean", "assay": "Test C postemergence", "format": "in vivo, Glycine max", "settings": "Glycine max, post-emergence", "outline": "as §1"}, "Italian ryegrass": {"test_system": "Italian ryegrass", "assay": "Test C postemergence", "format": "in vivo, Lolium multiflorum", "settings": "Lolium multiflorum, post-emergence", "outline": "as §1"}, "chickweed": {"test_system": "chickweed", "assay": "Test C postemergence", "format": "in vivo, Stellaria media", "settings": "Stellaria media, post-emergence", "outline": "as §1"}, "corn": {"test_system": "corn", "assay": "Test A preemergence", "format": "in vivo, Zea mays", "settings": "Zea mays, pre-emergence, 240 h", "outline": "as §2"}, "[3]": {"settings": "125 g ai/ha, 0 to 100 scale where 0 is no effect and 100 is complete control"}},
  "data": [
    {"smiles": "N#Cc1cccc(Oc2ncc(F)cn2)c1-n1cc(C(F)(F)F)cn1", "note": "[Compound 79, 3-[(5-fluoro-2-pyrimidinyl)oxy]-2-[4-(trifluoromethyl)-1H-pyrazol-1-yl]benzonitrile]", "values": [
      {"measurement": "pest or weed control at 125 g/ha", "setting": "galium; 125 g ai/ha, postemergence, read-out: Plant response rating (0 to 100), Galium", "value": 80, "unit": "%"},
      {"measurement": "pest or weed control at 250 g/ha", "setting": "galium; 250 g ai/ha, postemergence, read-out: Plant response rating (0 to 100), Galium", "value": 95, "unit": "%"},
      {"measurement": "pest or weed control at 31 g/ha", "setting": "galium; Postemergence, 31 g ai/ha, scale 0 to 100 (0 no effect, 100 complete control), 13 to 15 days, read-out: Plant response rating, Galium", "value": 65, "unit": "%"},
      {"measurement": "pest or weed control at 62 g/ha", "setting": "galium; Postemergence, 62 g ai/ha, scale 0 to 100 (0 no effect, 100 complete control), read-out: Plant response rating, Galium", "value": 75, "unit": "%"},
      {"measurement": "pest or weed control at 125 g/ha", "setting": "large (Lg) crabgrass; 125 g ai/ha, 0 to 100 scale where 0 is no effect and 100 is complete control, read-out: Plant response rating, Crabgrass, Large", "value": 100, "unit": "%"},
      {"measurement": "pest or weed control at 500 g/ha", "setting": "large (Lg) crabgrass; 500 g ai/ha, 0 to 100 scale, 0 no effect, 100 complete control, read-out: Plant response rating Crabgrass, Large", "value": 100, "unit": "%"},
      {"measurement": "plant injury at 125 g/ha", "setting": "oilseed rape; 125 g ai/ha, postemergence, read-out: Plant response rating (0 to 100), Oilseed Rape", "value": 50, "unit": "%"},
      {"measurement": "plant injury at 250 g/ha", "setting": "oilseed rape; 250 g ai/ha, postemergence, read-out: Plant response rating (0 to 100), Oilseed Rape", "value": 90, "unit": "%"},
      {"measurement": "plant injury at 31 g/ha", "setting": "oilseed rape; Postemergence, 31 g ai/ha, scale 0 to 100 (0 no effect, 100 complete control), 13 to 15 days, read-out: Plant response rating, Oilseed Rape", "value": 30, "unit": "%"},
      {"measurement": "plant injury at 62 g/ha", "setting": "oilseed rape; Postemergence, 62 g ai/ha, scale 0 to 100 (0 no effect, 100 complete control), read-out: Plant response rating, Oilseed Rape", "value": 50, "unit": "%"},
      {"measurement": "pest or weed control at 125 g/ha", "setting": "giant foxtail [1]; 125 g ai/ha", "value": 100, "unit": "%"},
      {"measurement": "pest or weed control at 500 g/ha", "setting": "giant foxtail [1]; 500 g ai/ha", "value": 100, "unit": "%"},
      {"measurement": "pest or weed control at 125 g/ha", "setting": "pigweed; 125 g ai/ha", "value": 100, "unit": "%"},
      {"measurement": "pest or weed control at 500 g/ha", "setting": "pigweed; 500 g ai/ha", "value": 100, "unit": "%"},
      {"measurement": "pest or weed control at 125 g/ha", "setting": "giant foxtail [2]; 125 g ai/ha, 0 to 100 scale where 0 is no effect and 100 is complete control, read-out: Plant response rating, Foxtail, Giant", "value": 100, "unit": "%"},
      {"measurement": "pest or weed control at 500 g/ha", "setting": "giant foxtail [2]; 500 g ai/ha, 0 to 100 scale, 0 no effect, 100 complete control, approx. 10 days, read-out: Foxtail, Giant plant response rating", "value": 100, "unit": "%"},
      {"measurement": "pest or weed control at 125 g/ha", "setting": "waterhemp; 125 g ai/ha, postemergence, read-out: Plant response rating (0 to 100), Waterhemp", "value": 90, "unit": "%"},
      {"measurement": "pest or weed control at 250 g/ha", "setting": "waterhemp; 250 g ai/ha, postemergence, read-out: Plant response rating (0 to 100), Waterhemp", "value": 100, "unit": "%"},
      {"measurement": "pest or weed control at 31 g/ha", "setting": "waterhemp; Postemergence, 31 g ai/ha, scale 0 to 100 (0 no effect, 100 complete control), 13 to 15 days, read-out: Plant response rating, Waterhemp", "value": 75, "unit": "%"},
      {"measurement": "pest or weed control at 62 g/ha", "setting": "waterhemp; Postemergence, 62 g ai/ha, scale 0 to 100 (0 no effect, 100 complete control), read-out: Plant response rating, Waterhemp", "value": 80, "unit": "%"},
      {"measurement": "Plant response rating, Wheat", "setting": "wheat; [3]", "value": 70},
      {"measurement": "plant injury at 500 g/ha", "setting": "wheat; Triticum aestivum, pre-emergence, 240 h, 500 g ai/ha, 0 to 100 scale, 0 no effect, 100 complete control, approx. 10 days, read-out: Wheat plant response rating", "value": 100, "unit": "%"},
      {"measurement": "pest or weed control at 125 g/ha", "setting": "lambsquarters; 125 g ai/ha, postemergence, read-out: Plant response rating (0 to 100), Lambsquarters", "value": 95, "unit": "%"},
      {"measurement": "pest or weed control at 250 g/ha", "setting": "lambsquarters; 250 g ai/ha, postemergence, read-out: Plant response rating (0 to 100), Lambsquarters", "value": 98, "unit": "%"},
      {"measurement": "pest or weed control at 31 g/ha", "setting": "lambsquarters; Postemergence, 31 g ai/ha, scale 0 to 100 (0 no effect, 100 complete control), 13 to 15 days, read-out: Plant response rating, Lambsquarters", "value": 90, "unit": "%"},
      {"measurement": "pest or weed control at 62 g/ha", "setting": "lambsquarters; Postemergence, 62 g ai/ha, scale 0 to 100 (0 no effect, 100 complete control), read-out: Plant response rating, Lambsquarters", "value": 95, "unit": "%"},
      {"measurement": "pest or weed control at 250 g/ha", "setting": "sedge, umbrella", "value": 95, "unit": "%"},
      {"measurement": "pest or weed control at 250 g/ha", "setting": "barnyardgrass", "value": 40, "unit": "%"},
      {"measurement": "plant injury at 250 g/ha", "setting": "rice", "value": 45, "unit": "%"},
      {"measurement": "Soybean plant response rating (crop injury, 0-100 scale) at 125 g/ha", "setting": "soybean; 125 g ai/ha, postemergence, read-out: Plant response rating (0 to 100), Soybean", "value": 90, "unit": "%"},
      {"measurement": "Soybean plant response rating (crop injury, 0-100 scale) at 250 g/ha", "setting": "soybean; 250 g ai/ha, postemergence", "value": 95, "unit": "%"},
      {"measurement": "Soybean plant response rating (crop injury, 0-100 scale) at 31 g/ha", "setting": "soybean; Postemergence, 31 g ai/ha, scale 0 to 100 (0 no effect, 100 complete control), 13 to 15 days", "value": 65, "unit": "%"},
      {"measurement": "Soybean plant response rating (crop injury, 0-100 scale) at 62 g/ha", "setting": "soybean; Postemergence, 62 g ai/ha, scale 0 to 100 (0 no effect, 100 complete control)", "value": 85, "unit": "%"},
      {"measurement": "pest or weed control at 125 g/ha", "setting": "Italian ryegrass; 125 g ai/ha, postemergence, read-out: Plant response rating (0 to 100), Ryegrass, Italian", "value": 20, "unit": "%"},
      {"measurement": "pest or weed control at 250 g/ha", "setting": "Italian ryegrass; 250 g ai/ha, postemergence, read-out: Plant response rating (0 to 100), Ryegrass, Italian", "value": 20, "unit": "%"},
      {"measurement": "pest or weed control at 31 g/ha", "setting": "Italian ryegrass; Postemergence, 31 g ai/ha, scale 0 to 100 (0 no effect, 100 complete control), 13 to 15 days, read-out: Plant response rating, Ryegrass, Italian", "value": 5, "unit": "%"},
      {"measurement": "pest or weed control at 62 g/ha", "setting": "Italian ryegrass; Postemergence, 62 g ai/ha, scale 0 to 100 (0 no effect, 100 complete control), read-out: Plant response rating, Ryegrass, Italian", "value": 10, "unit": "%"},
      {"measurement": "pest or weed control at 125 g/ha", "setting": "chickweed; 125 g ai/ha, postemergence, read-out: Plant response rating (0 to 100), Chickweed", "value": 90, "unit": "%"},
      {"measurement": "pest or weed control at 250 g/ha", "setting": "chickweed; 250 g ai/ha, postemergence, read-out: Plant response rating (0 to 100), Chickweed", "value": 95, "unit": "%"},
      {"measurement": "pest or weed control at 31 g/ha", "setting": "chickweed; Postemergence, 31 g ai/ha, scale 0 to 100 (0 no effect, 100 complete control), 13 to 15 days, read-out: Plant response rating, Chickweed", "value": 50, "unit": "%"},
      {"measurement": "pest or weed control at 62 g/ha", "setting": "chickweed; Postemergence, 62 g ai/ha, scale 0 to 100 (0 no effect, 100 complete control), read-out: Plant response rating, Chickweed", "value": 65, "unit": "%"},
      {"measurement": "Corn plant response rating (crop injury, 0 = no effect, 100 = complete kill) at 125 g/ha", "setting": "corn; [3]", "value": 80, "unit": "%"},
      {"measurement": "plant injury at 500 g/ha", "setting": "corn; 500 g ai/ha, 0 to 100 scale, 0 no effect, 100 complete control, approx. 10 days, read-out: Corn plant response rating", "value": 100, "unit": "%"}
    ]}
  ]
}
